{"source": "patent US11203576B2", "about": "“Aurora kinase and Janus kinase inhibitors for prevention of graft versus host disease” (H. LEE MOFFITT CANCER CENTER AND RESEARCH INSTITUTE, INC., priority 2016, dated 2021)", "key": {"[1]": {"tested_on": "T-cells allostimulated by dendritic cells (DC)", "assay": "Allogeneic mixed leukocyte reaction (alloMLR), T-cell proliferation", "type": "cell-based, human", "description": "Bulk donor T-cells were allostimulated with allogeneic DCs (DC:T-cell ratio of 1:30) as previously described (OneBlood, Tampa, Fla.)(15, 16, 20). […] As indicated, alloMLRs consisting of Treg depleted, naïve CD4^+ T-cells (Miltenyi Biotec Inc, San Diego, Calif.) were treated with a combination of ARL67156 (CD39 inhibitor, 125 μM, Sigma), AJI, or DMSO on day 0 to study the role of CD39 and ATP in this system. T-cell proliferation was measured on day 5 by a colorimetric assay (CellTiter 96 Aqueous One Solution Cell Proliferation Assay [MTS]; or CellTiter Blue, Promega, Madison, Wis.). Absorbance/optical density (OD) was analyzed at 490 nm or 590 nm, respectively. Proliferation (%)=(OD treated alloMLR−OD T-cells alone)/(OD DMSO alloMLR−OD T-cells alone)×100."}, "pSTAT5 (Y694)": {"tested_on": "pSTAT5 (Y694)", "assay": "IL-2-induced STAT5 phosphorylation in T-cells", "type": "cell-based, human", "details": "vs DMSO or unstimulated controls", "description": "As indicated, T cells were serum-starved in RPMI treated with DMSO diluent control, alisertib, TG101348, a combination of both inhibitors, AJI-214, or AJI-100 for 4 hours. IL-6-induced pSTAT3 or IL-2-induced pSTAT5 (Y694) was measured by flow cytometry."}, "iTreg": {"tested_on": "iTreg", "assay": "iTreg differentiation and potency", "type": "cell-based, human", "details": "for iTreg:allo Tconv ratio: 5-day MLRs; for iTreg:allo Tconv ratio / iTreg differentiation / absolute numbers of iTregs: vs DMSO; for iTreg differentiation / absolute numbers of iTregs: Treg-depleted naïve CD4+ T-cells, allogeneic DCs, 5 days; for suppressive capacity of iTregs generated in presence of inhibitor: standard suppression assay, no additional inhibitor added", "description": "On day 5, iTregs were isolated and washed to minimize drug carry-over as reported. The T cells were harvested and surface-stained on day 5 for CD3, CD4, CD25, and CD127, followed by fixation and permeabilization (eBioscience) and Foxp3 staining. The absolute number of iTreg was calculated by flow cytometry using CountBright beads (Life Technologies). The purified iTregs were titrated against alloMLRs consisting of responder CD4+CD25− T cells (5×10^4) from the iTregs donor and fresh allogeneic DCs (1.6×10^3) to determine suppressive potency. T cell proliferation was determined by pulsing cells with [^3H]thymidine ([…]). Surface expression of CD39 and LAG3 was evaluated on the iTregs. iTregs production of CTLA4 was assessed by intracellular staining after a 5-hour treatment of PMA/ionomycin, with GolgiStop added during the last 4 hours of incubation. iTregs synthesis of IL-10 and TGF-β (Quansys Biosciences) was quantified from supernatants using multiplex cytokine assays after PMA/ionomycin stimulation."}, "STAT3 (target of JAK2)": {"tested_on": "STAT3 (target of JAK2)", "assay": "STAT3 phosphorylation in T-cells (flow cytometry)", "type": "cell-based, human", "details": "in vitro, DC- or IL-6-stimulated, vs DMSO", "description": "IL-6-induced pSTAT3 or IL-2-induced pSTAT5 (Y694) was measured by flow cytometry."}, "RORgammaT": {"tested_on": "RORgammaT", "assay": "RORgammaT expression by RT-PCR", "type": "cell-based, human", "details": "TH17-polarizing medium, 5 days, vs DMSO"}, "CD39 on iTreg": {"tested_on": "CD39 on iTreg", "assay": "ATP hydrolysis assay", "type": "cell-based, human", "details": "ARL67156 125 μM", "description": "iTregs generated in the presence of AJI-241 (750 nM) or DMSO were plated in V-bottom 96 well plates in serum free media at a concentration of 75,000 cells per 100 μL. ARL67156 (125 μM) was added or not as indicated. A fixed dose of ATP (50 μM) was added to the cells and incubated at 37° C. for 45 minutes. ATP consumption was measured by a luminescence assay per the manufacturer's instructions (Promega, CellTiter-Glo Luminescent Cell Viability Assay) and read by a spectrofluorimeter. Percent consumption was calculated as (luminescence of test supernatant/luminescence of 50 μM ATP cell-free control supernatant)×100."}, "Bioavailability": {"assay": "Bioavailability", "details": "in vivo"}, "[2]": {"tested_on": "H3 Ser10 (target of Aurora)", "assay": "H3 Ser10 phosphorylation in DC-allostimulated T-cells (flow cytometry)", "type": "cell-based, human", "details": "5-day allogeneic DC stimulation; AJI 750 nM, alisertib 1.75 μM, TG101348 350 nM", "description": "After 5 days, T cells were then harvested and directly fixed (Cytofix, BD Biosciences) for 10 min at 37° C. After washing with phosphate-buffered saline, the T cells were permeabilized with icecold methanol (90%, v/v) for at least 20 min at -20° C. The cells were stained for expression of CD3 and pH[…]."}, "TH17": {"tested_on": "TH17", "assay": "IL-17 ELISPOT of DC-stimulated CD4+ T cells", "type": "cell-based, human", "details": "DC-stimulated purified CD4+ T cells", "description": "Naïve CD4^+ T cells were purified and allostimulated (DC/T cell ratio of 1:30) as reported (B. C. Betts et al., CD4^+ T cell STAT3 phosphorylation precedes acute GVHD, and subsequent TH17 tissue invasion correlates with GVHD severity and therapeutic response. J. Leukocyte Biol. (2015)). Alisertib ([…]), TG101348 (350 nM), both alisertib and TG101348, AJI-214 (750 nM), AJI-100 (750 nM), or DMSO control was added once on day 0. Medium was supplemented with IL-6 (1×10^5 IU/mL), TGF-β (4 ng/mL; R&D Systems), and anti-IFN-γ monoclonal antibody ([…]; eBioscience) to polarize TH17. After 5 days, the T cells were harvested, washed, and then plated at 35,000 cells per well in an IL-17 ELISPOT plate (R&DSystems). The CD4^+ T cells were stimulated with PMA/ionomycin, and the ELISPOT assay was performed according to the manufacturer's instructions."}, "[3]": {"tested_on": "xenogeneic GVHD (NSG mice transplanted with human PBMCs)", "assay": "Xenogeneic GVHD model", "type": "in vivo", "details": "alisertib 30 mg/kg daily, TG101348 45 mg/kg twice a day, oral gavage day 0 to +14", "text": "After transplantation and treatment with either AJI-100 or vehicle control, human T cells were isolated from recipient mouse spleens at day +14, stained for pH3Ser^10 or pSTAT3 (+IL-6 stimulation), and analyzed as described.\nNOD scid gamma (NSG) mice (male or female, 6-24 weeks old) were purchased from Jackson Laboratory (Bar Harbor, Me., USA) and raised per an IACUC-approved protocol in adherence to the NIH Guide for the Care and Use of Laboratory Animals. Mice received either (i) alisertib (30 mg/kg daily), TG101348 (45 mg/kg twice a day), a combination of alisertib and TG101348, or vehicle (methylcellulose) by oral gavage or (ii) AJI-100 (50 mg/kg daily) or vehicle (50% polyethylene glycol, 15% 2-hydroxypropyl-b-cyclodextrin, and 10% DMSO in sterile saline) ip from day 0 to day +14.\nMice were monitored for GVHD clinical scores (K. R. Cooke et al., An experimental model of idiopathic pneumonia syndrome after bone marrow transplantation: I. The roles of minor H antigens and endotoxin. Blood 88, 3230 (1996)), weight, and premoribund status. As indicated, mice were euthanized on day +14 to study recipient spleen Tconv, Tregs, TH1, TH17, B cells, and T-cell signal transduction. Human CD4^+ Treg (CD25+, CD127^−, Foxp3^+), Tconv(CD25^+, CD127^+), TH1, TH17, and CD19^+ B cells residing in recipient spleens were quantified by flow cytometry. T-cell pH3 ser10 and PSTAT3 were evaluated by flow cytometry. IL-17 ELISPOTs were performed using isolated human T cells from recipient mouse spleen as described above. Tissue samples were prepared, stained (Ventana Medical Systems, Tucson, Ariz.), and imaged (Vista, Calif., USA) to identify human T-cells as previously described. All vertebrate animal work was IACUC-approved."}, "GVHD": {"tested_on": "GVHD", "details": "mouse, in vivo; cited from earlier work"}}, "note": "Read-outs that look alike come from different tables or passages of the source.", "data": [{"smiles": "Cc1cnc(Nc2ccc(OCCN3CCCC3)cc2)nc1Nc1cccc(S(=O)(=O)NC(C)(C)C)c1", "note": "[TG101348]", "values": [{"measurement": "IC50", "setting": "[1]; Homo sapiens, TG101348 and alisertib added together at fixed ratio 1:5, read-out: IC50 of the combination, TG101348 concentration", "value": 0.35, "unit": "µM"}, {"measurement": "concentrations reducing alloreactive T-cell proliferation", "setting": "[1]; alloMLR", "value": "≥ 350", "unit": "nM"}, {"measurement": "IL-2-induced STAT5 activation/phosphorylation in T-cells", "setting": "pSTAT5 (Y694)", "value": "remained intact"}, {"measurement": "iTreg:allo Tconv ratio", "setting": "iTreg", "value": "incrementally larger Treg:allo Tconv ratios"}, {"measurement": "iTreg differentiation / absolute numbers of iTregs", "setting": "iTreg", "value": "less absolute numbers of iTregs and allo Tconv"}, {"measurement": "suppressive capacity of iTregs generated in presence of inhibitor", "setting": "iTreg", "value": "improved iTreg function compared with DMSO"}, {"measurement": "STAT3 (pSTAT3 Y705) phosphorylation in T-cells", "setting": "STAT3 (target of JAK2)", "value": "only inhibited pSTAT3"}, {"measurement": "RORgammaT expression in alloresponder CD4+ T-cells", "setting": "RORgammaT", "value": "significantly decreases"}]}, {"smiles": "CCN(CC)c1ncnc2c1ncn2[C@@H]1O[C@H](COP(=O)(O)OP(=O)(O)C(Br)(Br)P(=O)(O)O)[C@@H](O)[C@H]1O", "note": "[ARL67156]", "values": [{"measurement": "T-cell inhibition by bisanilinopyrimidine (I)/AJI-214 on CD39 blockade", "setting": "[1]; natural Treg-depleted CD4+ alloMLR, ARL67156 added", "value": "significantly weakened"}, {"measurement": "hydrolysis of ATP by AJI-treated iTregs on CD39 blockade", "setting": "CD39 on iTreg", "value": "significantly impaired"}]}, {"smiles": "NC(=O)c1ccc(Nc2ncc(F)c(Nc3ccccc3Cl)n2)cc1", "note": "[bisanilinopyrimidine (I)]", "values": [{"measurement": "bioavailability", "setting": "Bioavailability", "value": "limited bioavailability"}]}, {"smiles": "COc1cc(Nc2ncc3c(n2)-c2ccc(Cl)cc2C(c2c(F)cccc2OC)=NC3)ccc1C(=O)O", "note": "[alisertib]", "values": [{"measurement": "inhibition at 0.625 µM", "setting": "[1]; Homo sapiens, T-cell, alisertib 625 nM, read-out: inhibition of proliferative response of T-cells in alloMLRs", "value": 32.5, "unit": "%"}, {"measurement": "IC50", "setting": "[1]; Homo sapiens, T-cell, alisertib alone (Study 2 text), read-out: median inhibitory concentration (IC50), T cells in alloMLRs", "value": 10, "unit": "µM"}, {"measurement": "IC50", "setting": "[1]; Homo sapiens, T-cell, alisertib alone, read-out: IC50, proliferative response of T-cells in alloMLRs", "value": 10, "unit": "µM"}, {"measurement": "IC50", "setting": "[1]; Homo sapiens, TG101348 and alisertib added together at fixed ratio 1:5, read-out: IC50 of the combination, alisertib concentration", "value": 1.75, "unit": "µM"}, {"measurement": "IL-2-induced STAT5 activation/phosphorylation in T-cells", "setting": "pSTAT5 (Y694)", "value": "remained intact"}, {"measurement": "phosphorylation of histone 3 serine 10 (pH3 Ser10) in T-cells", "setting": "[2]", "value": "only inhibited pH3Ser^10"}, {"measurement": "iTreg:allo Tconv ratio", "setting": "iTreg", "value": "incrementally larger Treg:allo Tconv ratios"}, {"measurement": "iTreg differentiation / absolute numbers of iTregs", "setting": "iTreg", "value": "less absolute numbers of iTregs and allo Tconv"}, {"measurement": "suppressive capacity of iTregs generated in presence of inhibitor", "setting": "iTreg", "value": "superior suppressive capacity"}, {"measurement": "TH17 (IL-17 ELISPOT)", "setting": "TH17", "value": "no effect"}, {"measurement": "median survival", "setting": "[3]", "value": 41, "unit": "days"}, {"measurement": "onset of GVHD in mice", "setting": "GVHD", "value": "significantly delayed the onset of GVHD"}, {"measurement": "RORgammaT expression in alloresponder CD4+ T-cells", "setting": "RORgammaT", "value": "no effect"}]}]}
